The values that follow come from PubChem BioAssay (NCI).

The structures appear in SMILES notation.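 All cell lines were grown in 96-well plates and treated with compound for 48 hours. TGI is the concentration that stops growth completely.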 Bounds are passed on as bounds.

Test in all cases: NCI tumour cell line growth inhibition, 48 h
Assay [1] relates to MALME-3M melanoma.
The subject of assay [2] is HOP-62 NSCLC.
The subject of assay [3] is SR leukemia.
Assay [4] deals with TK-10 renal.
Assay [5] has as its system SK-MEL-28 melanoma.
Assay [6] deals with OVCAR-4 ovarian.
The subject of assay [7] is MDA-N.
The test system of assay [8] is NCI-H226 lung.
Assay [9] deals with SK-MEL-5 melanoma.
The test system of assay [10] is SNB-75 CNS.
The test system of assay [11] is SF-268 CNS.
Assay [12] relates to A498 renal.
Assay [13] has as its system HS 578T breast.
Assay [14] deals with RPMI-8226 leukemia.
Assay [15] deals with UO-31 renal.
Assay [16] deals with HL-60(TB) leukemia.
Assay [17] relates to DU-145 prostate.
In assay [18] the test system is NCI-H23 lung.
Assay [19] has as its system CCRF-CEM leukemia.

As for `O=C(c1ccccc1)c1ccc(C(c2c(O)c3ccccc3oc2=O)c2c(O)c3ccccc3oc2=O)cc1`, the TGI in assay [1] was 37.6 µM; in assay [2], > 57.3 µM; in assay [3] it was 59.3 µM; in assay [4] it was 36.7 µM; in [5], > 73.3 µM; in assay [6] it was 82.9 µM. In addition, the TGI in assay [7] is > 71.7 µM; in assay [8], 55 µM; in assay [9] it was > 68.5 µM; in assay [10] it was 62.4 µM; in [11], 64.7 µM; in [12] it was 62.6 µM. Further, the TGI in assay [13] is 64.5 µM; in assay [14] it was 60.9 µM; in assay [15], 33 µM; in assay [16], > 100 µM; in assay [17] it was > 85.7 µM; in [18], 49 µM. Further, the TGI in assay [19] is > 81.2 µM.

`Clc1ccc(N=C/C=C/Nc2ccc(Cl)cn2)nc1`: the TGI was determined as 31.2 µM in assay [1]; 31 µM in [2]; 6.69 µM in [3]; 34.9 µM in assay [4]; 32.9 µM in [5]; 25.7 µM in assay [6]. Besides, the TGI in assay [7] came out at 28.4 µM; in assay [8], 31.2 µM; in assay [9], 27.5 µM; in [10], 25.7 µM; in assay [11], 30.6 µM; in assay [12], 34.7 µM. In addition, the TGI in assay [13] came out at 23.3 µM; in assay [14], 37.1 µM; in assay [15] it was 29.2 µM; in assay [16], 3.91 µM; in assay [17], 31.6 µM; in assay [18], 32.8 µM. Further, the TGI in assay [19] is 9.41 µM.

Take `OC1(c2ccccc2)CC2CCC(C1)N2CCc1ccccc1` (stereo not given): the TGI in assay [1], in assay [2], in [3], in assay [4], in [5] and in assay [6] was > 100 µM in each case. Moreover, the TGI in [7] was > 100 µM; in assay [8] it was > 100 µM; in assay [9], 28.6 µM; in [10], > 100 µM; in assay [11], > 100 µM; in [12] it was 56.4 µM. The TGI in assay [13] is 80.6 µM; in assay [14], > 100 µM; in [15], > 100 µM; in [16], > 100 µM; in assay [17] it was > 100 µM; in assay [18] it was > 100 µM. The TGI in assay [19] was > 100 µM.

Turning to `COc1ccc2[nH]c(CCNC(=O)c3cc([N+](=O)[O-])cc([N+](=O)[O-])c3)cc2c1`, the TGI in [1] is > 100 µM; in assay [2] it was 60.6 µM; in [3], > 100 µM; in [4] it was > 100 µM; in assay [5], > 100 µM; in assay [6], > 100 µM. Further, the TGI is > 100 µM in [7]; > 100 µM in [8]; > 100 µM in assay [9]; 46.2 µM in [10]; > 100 µM in assay [11]; > 100 µM in assay [12]. Further, the TGI in [13], in assay [14], in assay [15], in [16], in assay [17] and in assay [18] was > 100 µM in each case. Besides, the TGI in assay [19] is > 100 µM.

For `COc1ccc(OC)c(C2CCc3nc4nc(N)nc(N)c4cc3C2)c1` (stereo not given), the TGI in assay [1] was found to be 3.57 µM; in assay [2], 5.04 µM; in assay [3] it was 7.06 µM; in assay [4], 23.6 µM; in assay [5], 6.34 µM; in assay [6] it was 4.14 µM. In addition, the TGI in [7] was 5.04 µM; in assay [8], 30.7 µM; in [9], 18.6 µM; in assay [10], 4.1 µM; in assay [11], 10.4 µM; in assay [12], 27.5 µM. The TGI came to 16.1 µM in [13]; 19 µM in assay [14]; 15.8 µM in assay [15]; 7.86 µM in [16]; 17.8 µM in assay [17]; 38.3 µM in assay [18]. The TGI in [19] worked out at 9.44 µM.

As for `C/C(=N/NC(=S)Nc1ccccc1Cl)c1ccccn1`, the TGI turned out to be 13 µM in assay [1]; 12.4 µM in [2]; 3.22 µM in assay [3]; 17.1 µM in assay [4]; 23 µM in assay [5]; 14.5 µM in assay [6]. For the same compound, the TGI amounted to 19.7 µM in [7]; 1.65 µM in assay [8]; 8.67 µM in assay [9]; 30.5 µM in assay [10]; 34.6 µM in assay [11]; 9.31 µM in assay [12]. The TGI is 40.2 µM in [13]; 47.3 µM in assay [14]; 12.3 µM in assay [15]; < 0.0305 µM in assay [16]; 12.8 µM in assay [17]; 32.8 µM in assay [18]. This compound also returned a TGI in assay [19] of 1.1 µM.

As to `CCN(CC)C(=S)SS(=O)(=O)c1ccccc1C(=O)O`, the TGI in assay [1], in assay [2], in [3], in assay [4], in [5] and in [6] was > 100 µM each time. The TGI in assay [7], in [8], in assay [9], in [10], in assay [11] and in [12] was > 100 µM each time. Moreover, the TGI in assay [13] is > 100 µM; in assay [14], > 100 µM; in assay [15], > 100 µM; in assay [16] it was > 42 µM; in assay [17], > 100 µM; in [18] it was > 100 µM. The TGI in assay [19] was > 100 µM.

For the compound `C=C(O)c1ccccc1C#Cc1ccccc1C(=O)OC`, the TGI in assay [1], in assay [2], in assay [3], in assay [4], in assay [5] and in assay [6] was > 10 µM each time. Besides, the TGI in [7], in assay [8], in assay [9], in [10], in assay [11] and in [12] was > 10 µM in each case. For the same compound, the TGI in assay [13], in assay [14], in [15], in assay [16], in [17] and in assay [18] was > 10 µM each time. In assay [19], the TGI was > 10 µM.

For `CN1C2CCC1CC(OC(c1ccccc1)c1ccccc1)C2` (stereo not given), the TGI is 28.1 µM in assay [1]; 43 µM in assay [2]; 42 µM in [3]; 44.5 µM in assay [4]; 27.8 µM in assay [5]; > 100 µM in assay [6]. In addition, the TGI in [7] turned out to be 28.8 µM; in assay [8], 72.6 µM; in [9], 29.1 µM; in assay [10], 72.8 µM; in assay [11], 41.5 µM; in [12] it was 28.4 µM. Moreover, the TGI was 33.5 µM in assay [13]; 33.4 µM in assay [14]; 40.1 µM in assay [15]; 36.2 µM in assay [16]; > 100 µM in assay [17]; 83.3 µM in assay [18]. Moreover, the TGI in [19] was determined as 29.9 µM.

For the compound `CC(=O)N=C(N=Nc1c(O)[nH]c2ccc(C)cc12)NC(C)=O`, the TGI in [1], in assay [2], in assay [3], in [4], in [5] and in assay [6] was > 100 µM throughout. Further, the TGI in assay [7], in [8], in assay [9], in assay [10], in assay [11] and in [12] was > 100 µM in each case. Besides, the TGI in assay [13], in [14], in [15], in assay [16], in assay [17] and in assay [18] was > 100 µM in each case. Moreover, the TGI in assay [19] is > 100 µM.

As for `CCOc1c2ccsc2c(OCC)c2ccsc12`, the TGI in [1], in [2], in assay [3], in assay [4], in assay [5] and in assay [6] was > 100 µM in each case. Moreover, the TGI in [7] is 4.83 µM; in [8] it was > 100 µM; in [9], > 29.5 µM; in [10], > 28.3 µM; in assay [11] it was > 100 µM; in assay [12], > 100 µM. Moreover, the TGI in assay [13] was > 73.7 µM; in [14], > 100 µM; in assay [15], > 100 µM; in [16], 7.43 µM; in assay [17] it was > 100 µM; in assay [18] it was > 78 µM. Moreover, in [19], the TGI was > 100 µM.

Regarding `CCOC(=O)CC(=O)NC1CC2CCC1(C)C2(C)C` (stereo not given), the TGI in [1], in assay [2], in assay [3], in assay [4], in assay [5] and in [6] was > 100 µM throughout. The TGI in assay [7], in assay [8], in assay [9], in [10], in [11] and in assay [12] was > 100 µM in each case. The TGI in [13], in [14], in [15], in assay [16], in assay [17] and in assay [18] was > 100 µM throughout. In addition, in assay [19], the TGI is > 100 µM.

On to `Cn1c(=O)oc2cc(C(=O)CSC(=S)N3CCCCCC3)ccc21`, for which the TGI in [1], in assay [2], in [3], in assay [4], in assay [5] and in [6] was > 100 µM in each case. Further, the TGI in assay [7], in [8], in assay [9], in assay [10], in assay [11] and in [12] was > 100 µM in each case. Also, the TGI in assay [13], in assay [14], in assay [15], in [16], in assay [17] and in assay [18] was > 100 µM throughout. The TGI in assay [19] is > 100 µM.

On to `CCOC(=O)c1nc2cc(N3CCOCC3)c(F)cc2[nH]c1=O`, for which the TGI in [1], in assay [2], in assay [3], in assay [4], in assay [5] and in assay [6] was > 100 µM each time. The TGI in assay [7], in [8], in [9], in [10], in assay [11] and in assay [12] was > 100 µM each time. The TGI in assay [13], in assay [14], in assay [15], in assay [16], in assay [17] and in assay [18] was > 100 µM each time. In addition, the TGI in assay [19] was > 100 µM.

Turning to `CCOC(=O)c1c(C)n(Cc2ccccc2)c(=O)c2ccccc2c(=O)c2c(=O)ccc(=O)c1=2`, the TGI in [1] is 41.9 µM; in assay [2], > 100 µM; in assay [3] it was > 100 µM; in assay [4], 54 µM; in assay [5], > 100 µM; in assay [6] it was > 100 µM. The TGI in assay [7], in [8], in assay [9], in [10], in [11] and in [12] was > 100 µM each time. Moreover, the TGI in [13] is > 100 µM; in assay [14] it was 67.3 µM; in assay [15] it was 34.7 µM; in [16], > 100 µM; in assay [17], > 100 µM; in [18], > 100 µM. Also, the TGI in assay [19] is > 100 µM.
